For assay [1], the target named is Luciferin 4-monooxygenase (Photinus pyralis, UniProt P08659). The assay can be described thus: firefly luciferase enzyme inhibitors, dose response, biochemical, luminescence (AID 1891).
The nature of assay [2]: Luminescence Cell-Based Dose Confirmation HTS to Identify Inhibitors of Platelet Dense Granule Release. [Related pubchem assays: 1663 (Primary HTS), 1678 (Summary of Project)]. It is filed as functional.
Assay [3] can be described thus: A549 cell cytotoxicity, dose response, cytotoxicity control, plate reader, cherry-pick, antagonist series (AID 743412). Type of assay: functional, cell-based.
Assay [4] is described as follows: LGR2 antagonists, dose response, cell-based, HEK293, CRE-luciferase reporter, cherry pick, set 2 (AID 743343).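 Note: transfected cells were stimulated with diluted bursicon conditioned medium after compound addition.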 It is filed as functional. Background: Reporter assays use an easily measured gene product as a stand-in for the process of interest.
The nature of assay [5]: MC4R antagonists, dose response, counter-screen for LGR2 antagonist project, cell-based, plate reader, cherry pick (AID 743444).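 Note: transfected HEK 293 cells stimulated with alpha-MSH peptide; potency of inhibitors of the alpha-MSH evoked signal.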 Type of assay: functional.
A short description of assay [6]: Shn3 3'UTR reporter inhibitors, dose response, cell-based, Clone20 osteoblasts, firefly luciferase, cherry-picked (AID 624132).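 Note: firefly luciferase luminescence from reporter carrying the Shn3 3'UTR in osteoblasts.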 It is filed as functional.
Assay [7] in a line: control 3'UTR Renilla luciferase suppression, dose response, counter-screen for Shn3 inhibitor project, cell-based, Clone20-Shn3RL, cherry-picked (AID 624133). It is filed as functional.
The target of assay [8] is T1, Heat shock factor protein 1 (Mus musculus, UniProt P38532).
T1 sequence (P38532 whole entry): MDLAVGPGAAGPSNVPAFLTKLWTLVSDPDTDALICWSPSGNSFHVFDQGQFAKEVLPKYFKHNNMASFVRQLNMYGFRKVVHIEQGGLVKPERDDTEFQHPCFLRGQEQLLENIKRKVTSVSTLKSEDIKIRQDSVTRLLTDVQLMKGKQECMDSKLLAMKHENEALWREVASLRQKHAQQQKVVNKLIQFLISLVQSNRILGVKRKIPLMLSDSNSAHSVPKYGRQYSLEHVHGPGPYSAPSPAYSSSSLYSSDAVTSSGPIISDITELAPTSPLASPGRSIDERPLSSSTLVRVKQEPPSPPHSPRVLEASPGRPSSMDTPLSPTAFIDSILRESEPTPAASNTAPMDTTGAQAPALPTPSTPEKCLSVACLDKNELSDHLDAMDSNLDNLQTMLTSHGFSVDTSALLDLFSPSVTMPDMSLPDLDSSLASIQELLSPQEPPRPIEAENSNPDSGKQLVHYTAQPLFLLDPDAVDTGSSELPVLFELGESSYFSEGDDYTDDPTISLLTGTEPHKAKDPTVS
The assay can be described thus: HSF1 potentiators in luciferase reporter cells, confirmation, cell-based, NIH3T3, luminescence, dose retest (AID 435004).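 Note: stress induced by proteasome inhibitor MG132 added 30 min after compound; luciferase reporter driven by HSF1 response element in NIH3T3 cells; actives raise luminescence as potentiators of the MG132 stress response.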 Type of assay: functional.

The target in assay [9] is FAD-linked sulfhydryl oxidase ALR (Homo sapiens, UniProt P55789). Put plainly: inhibitors of human ALR sulfhydryl oxidase, dose response, biochemical, H2O2 detection, luminescence, cherry-pick (AID 493248).
The nature of assay [10]: NIH-3T3 fibroblast cytotoxicity, dose response, cytotoxicity control, cell-based, fluorescence, Alamar Blue, secondary assay (AID 2327).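 Note: NIH-3T3 mouse fibroblasts cultured with fluconazole at 8 µg/mL.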 It is filed as functional.
The nature of assay [11]: C. albicans growth with fluconazole, confirmation, fluorescence, retest (AID 2467). It is filed as functional, cell-based.
The nature of assay [12]: HEp-2 cell cytotoxicity, dose response, cytotoxicity control for RSV inhibitor project, HTS (AID 2410). It is filed as functional. The following applies: human respiratory syncytial virus.
Assay [13] in a line: cells. It is filed as functional.
Assay [14] deals with BJ. Put plainly: cytotoxicity toward BJ-TERT fibroblasts, dose response, cell-based, RAS-independent, luminescence (AID 1933). It is filed as functional. Conditions: Homo sapiens.
The test system of assay [15] is BJ. The assay can be described thus: cells. It is filed as functional, cell-based. Conditions: Homo sapiens.
The test system of assay [16] is BJ. Put plainly: cytotoxicity toward BJ-TERT-LT-ST fibroblasts, dose response, cell-based, RAS-independent, luminescence (AID 1935).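 Note: BJ fibroblasts immortalized with TERT plus LT and ST oncogenes.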 It is filed as functional. The following applies: Homo sapiens.
The nature of assay [17]: cytotoxicity toward DRD oncogenic fibroblasts, dose response, cell-based, non-viral oncogenic, luminescence (AID 1934). The following applies: Homo sapiens. Type of assay: functional.
Assay [18] can be described thus: inhibitors of intracellular T. cruzi replication, confirmation, NIH3T3 host cells, beta-gal luminescence (AID 2044).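 Note: intracellular parasites grown in NIH/3T3 mouse fibroblasts as host cells; luminescent beta-galactosidase reporter signal from transgenic T. cruzi replicating inside host cells; inhibitors lower the luminescence signal.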 It is filed as functional, cell-based.
A short description of assay [19]: cytotoxicity toward NIH3T3 fibroblasts, dose response, counter-screen, cell-based, ATP luminescence, mouse fibroblasts (AID 2010).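 Note: cells exposed to compound for about 90 hours before reading.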 Type of assay: functional. For orientation: A counterscreen serves to expose hits that act by an unwanted route or on another target.
Assay [20] addresses T2, Replicative DNA helicase DnaB (Mycobacterium tuberculosis, UniProt P9WMR3).
T2 sequence (P9WMR3 whole entry): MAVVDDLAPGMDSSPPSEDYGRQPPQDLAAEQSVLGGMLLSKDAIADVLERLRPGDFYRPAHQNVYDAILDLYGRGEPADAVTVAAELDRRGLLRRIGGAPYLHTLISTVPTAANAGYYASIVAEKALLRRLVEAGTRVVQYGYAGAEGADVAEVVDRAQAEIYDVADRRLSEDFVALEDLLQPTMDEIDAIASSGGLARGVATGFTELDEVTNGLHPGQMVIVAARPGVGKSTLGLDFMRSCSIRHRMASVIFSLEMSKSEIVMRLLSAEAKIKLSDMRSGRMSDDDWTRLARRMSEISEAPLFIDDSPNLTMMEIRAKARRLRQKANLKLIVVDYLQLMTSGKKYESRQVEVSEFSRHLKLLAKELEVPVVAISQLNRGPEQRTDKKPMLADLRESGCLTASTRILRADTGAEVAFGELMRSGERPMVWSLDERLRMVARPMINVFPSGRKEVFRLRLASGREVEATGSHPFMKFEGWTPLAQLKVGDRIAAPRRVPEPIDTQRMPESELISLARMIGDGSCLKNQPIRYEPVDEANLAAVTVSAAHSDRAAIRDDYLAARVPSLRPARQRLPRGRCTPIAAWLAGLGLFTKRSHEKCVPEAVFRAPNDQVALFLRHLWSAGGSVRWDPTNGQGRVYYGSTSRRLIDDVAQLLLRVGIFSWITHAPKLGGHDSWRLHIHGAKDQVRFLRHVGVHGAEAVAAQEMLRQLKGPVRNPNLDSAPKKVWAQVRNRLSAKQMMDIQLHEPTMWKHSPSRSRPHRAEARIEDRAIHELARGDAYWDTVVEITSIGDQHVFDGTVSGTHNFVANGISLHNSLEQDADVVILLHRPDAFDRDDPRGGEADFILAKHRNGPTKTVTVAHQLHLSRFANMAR
The assay can be described thus: DnaB intein splicing inhibitors, dose response, biochemical, cell-free fluorescence (AID 449749). It is filed as functional.

Assay [21] addresses T3, Protein RecA (Mycobacterium tuberculosis, UniProt P9WHJ3).
T3 sequence (P9WHJ3 whole entry): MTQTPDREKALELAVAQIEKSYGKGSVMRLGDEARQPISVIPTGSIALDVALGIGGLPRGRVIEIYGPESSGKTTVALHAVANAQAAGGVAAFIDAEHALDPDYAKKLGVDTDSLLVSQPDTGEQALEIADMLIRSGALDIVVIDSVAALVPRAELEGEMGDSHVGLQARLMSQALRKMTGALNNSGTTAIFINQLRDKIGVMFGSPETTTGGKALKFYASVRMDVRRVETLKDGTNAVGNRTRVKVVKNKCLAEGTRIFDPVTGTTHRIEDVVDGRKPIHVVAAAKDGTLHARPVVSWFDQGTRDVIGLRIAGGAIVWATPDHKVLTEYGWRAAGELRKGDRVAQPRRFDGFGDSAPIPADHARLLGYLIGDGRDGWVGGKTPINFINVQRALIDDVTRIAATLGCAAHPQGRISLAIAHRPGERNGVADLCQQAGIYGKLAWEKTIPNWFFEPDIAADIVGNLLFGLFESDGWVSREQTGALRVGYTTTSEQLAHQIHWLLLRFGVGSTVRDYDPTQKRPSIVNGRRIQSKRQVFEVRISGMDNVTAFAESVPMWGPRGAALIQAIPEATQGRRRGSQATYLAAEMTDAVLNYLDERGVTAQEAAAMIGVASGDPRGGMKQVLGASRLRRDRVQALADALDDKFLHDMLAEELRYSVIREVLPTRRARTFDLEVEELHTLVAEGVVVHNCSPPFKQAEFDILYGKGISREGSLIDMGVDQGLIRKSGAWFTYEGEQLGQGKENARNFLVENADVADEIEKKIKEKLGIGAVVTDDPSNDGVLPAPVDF
Put plainly: Fluorescence Cell-Free Homogeneous Dose Retest to Identify Inhibitors of RecA-Intein Splicing Activity. [Related pubchem assays (depositor defined):AID2097, AID2223, AID489010, AID492950]. It is filed as functional.

Assay [22] is described as follows: microbe, parasite or virus in culture. Type of assay: functional. The following applies: Mycobacterium tuberculosis.

Activity calls are given as the source filed them. Cut-off read from the data, not from the text of the source, for most assays here: actives have a measured EC50 and inactives only a lower limit. Some results are limits rather than exact numbers.

Broadly, the EC50 is the concentration giving half of the maximal effect. Usually AC50 stands for the concentration giving half of the maximal activity seen. Usually IC50 stands for the point on the concentration scale where inhibition reaches its midpoint.

Luciferin 4-monooxygenase, sequence (P08659 whole entry): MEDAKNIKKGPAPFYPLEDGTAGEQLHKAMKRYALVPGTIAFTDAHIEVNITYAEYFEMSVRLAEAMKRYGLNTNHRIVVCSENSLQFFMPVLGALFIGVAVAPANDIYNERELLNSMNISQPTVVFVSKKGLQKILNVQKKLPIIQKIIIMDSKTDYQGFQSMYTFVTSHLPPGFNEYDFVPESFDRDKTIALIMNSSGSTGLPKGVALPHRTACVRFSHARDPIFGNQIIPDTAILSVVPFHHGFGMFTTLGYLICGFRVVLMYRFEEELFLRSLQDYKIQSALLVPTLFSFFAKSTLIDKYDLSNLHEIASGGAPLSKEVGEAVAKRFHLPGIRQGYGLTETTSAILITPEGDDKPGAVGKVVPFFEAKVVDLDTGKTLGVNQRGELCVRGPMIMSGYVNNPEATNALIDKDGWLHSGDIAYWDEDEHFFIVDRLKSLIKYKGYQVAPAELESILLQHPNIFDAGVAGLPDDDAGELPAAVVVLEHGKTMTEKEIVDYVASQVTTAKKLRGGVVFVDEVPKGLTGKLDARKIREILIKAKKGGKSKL
FAD-linked sulfhydryl oxidase ALR, sequence (P55789 whole entry): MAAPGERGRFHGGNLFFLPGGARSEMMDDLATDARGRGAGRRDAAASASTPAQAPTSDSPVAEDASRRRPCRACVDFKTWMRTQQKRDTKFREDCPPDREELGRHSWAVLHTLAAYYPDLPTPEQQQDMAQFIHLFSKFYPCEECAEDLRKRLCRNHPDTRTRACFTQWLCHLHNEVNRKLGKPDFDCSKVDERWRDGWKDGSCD

For the molecule `O=C(Nc1ccc(Cl)cc1)Nc1ccccc1C(=O)O`, the EC50 in assay [1] was < 0.088 µM (active); in assay [2], 5.21 µM (active). For the same molecule, the values for the AC50 in assay [3], in [4] and in assay [5] were > 52 µM (inactive), 9.59 µM (active) and 6.99 µM (active), respectively.
On to `COC(=O)c1ccc(N2CCN(S(=O)(=O)c3ccc(C)cc3)CC2)c([N+](=O)[O-])c1`, for which the AC50 was 3.88 µM (active) in assay [6] and 2.95 µM (active) in assay [7].
As for `C=CCn1c(S)nnc1-c1cc(-c2ccccc2)sc1N`, the EC50 in [8] is > 260 µM (inactive). The AC50 in [9] was < 0.005 µM (active).
`CCCSc1cc(N)cc([N+](=O)[O-])c1`: the EC50 in assay [10] is > 160 µM (inconclusive); in assay [11], > 38 µM (not active).
For the molecule `CCOC(=O)c1cccc(NC2c3ccccc3C(=O)N2Cc2ccco2)c1` (configuration not stated), the AC50 in assay [6] is 4.26 µM (active); in assay [7] it was 1.94 µM (active).
Turning to `CN(C)c1ccc(C(=O)N/N=C/c2cc(Br)cc(Br)c2O)cc1`, the values for the EC50 in [10] and in [11] were 14 µM (active) and > 38 µM (not active), respectively.
As for `Cc1ccc2nc(-c3ccc(NC(=O)COC(=O)c4ccco4)cc3)sc2c1`, the CC50 in assay [12] was 14.1 µM (active). The AC50 in assay [4] is 2.95 µM (active); in assay [5], 3.55 µM (active).
On to `CCc1nnc(NC(=O)c2cc3ccccc3oc2=O)s1`, for which, in [13], the IC50 was 0.81 µM (active).
For the molecule `CCOc1ccc2nc(NN=C3C(=O)CC(C)(C)CC3=O)sc2c1`, the EC50 was > 160 µM (inactive) in [10] and 9.16 µM (active) in [11].
As for `COC(=O)CCn1c(C)cc(C(=O)COc2ccccc2C(N)=O)c1C`, the CC50 in assay [12] is 9.72 µM (active). For the same molecule, the EC50 is 58.1 µM (active) in assay [14], > 150 µM (not active) in assay [15], > 150 µM (inconclusive) in [16] and > 150 µM (not active) in [17]. Also, the IC50 in assay [13] is 19.8 µM (active).
With `Cc1ccc(/C=N/NC(=O)c2ccc3ccccc3c2)s1`, the EC50 was 4.71 µM (inconclusive) in assay [14], 96.4 µM (inconclusive) in [15], 62.1 µM (active) in assay [16] and 18 µM (inconclusive) in assay [17].
The matching figures for `O=C(NCC1CCCO1)c1cc2c([nH]c3ccccc32)c(-c2ccc(F)cc2)n1` (configuration not stated): 30.7 µM (active), 23.9 µM (active), > 150 µM (not active) and 23.6 µM (active).
Take `CCCCN(CCCC)S(=O)(=O)c1ccc(C(=O)Nc2nnc(COC)o2)cc1`: the EC50 in assay [10] is > 150 µM (inconclusive); in assay [11], 2.92 µM (active).
Consider `Cc1cccc(C)c1NC(=O)COC(=O)CCc1c[nH]c2ccccc12`, for which the IC50 in assay [13] was 9.65 µM (active).
As to `CCOC(=O)Cc1csc(NC(=O)c2ccc3ncsc3c2)n1`, the EC50 in [10] was > 160 µM (inactive); in [11], > 38 µM (not active).
Regarding `O=C(c1ccccc1)C1CN(Cc2ccccc2)CCC1(O)c1ccccc1` (configuration not stated), the IC50 in assay [13] is 18.7 µM (active).
Regarding `Nc1ccc(-c2nc3cc(N)ccc3o2)cc1`, the EC50 in [1] is > 112 µM (not active); in assay [2] it was 29.6 µM (active). In addition, the AC50 in [9] is 0.289 µM (active).
As for `CN(C)c1ncnc2c1C(c1ccccc1)C(C)(C)O2` (configuration not stated), the AC50 in assay [6] is > 70 µM (inactive).
Take `O=C(Nc1ccc(Br)cc1)c1cc([N+](=O)[O-])cc([N+](=O)[O-])c1`: the EC50 in assay [18] is 0.19 µM (active); in [19] it was > 60 µM (not active). For the same molecule, the IC50 in assay [13] was 11.4 µM (active).
`COC(=O)[C@@]12CCCCN1[C@H](c1ccc(SC3CCCCC3)c(OC)c1)[C@@H]1C(=O)N(C)C(=O)[C@@H]12`: the AC50 in [6] is 21.4 µM (active); in [7], 24.2 µM (active).
As for `CC(C)(C)OC(=O)N/N=C\c1ccc(OC(=O)c2ccco2)cc1`, the IC50 in assay [13] is 39.5 µM (active). Besides, the AC50 in assay [20] is 34.5 µM (active). Further, the 50% effective concentration (EC50) in [21] was 16.2 µM (active).
`O=C(CCS(=O)(=O)c1ccccc1)Nc1nc2c(s1)CCCC2`: the CC50 in [12] is 18.5 µM (active). The AC50 in assay [7] is 25.2 µM (active).
As to `CCOc1ccc(OCCSc2ccc(S(=O)(=O)N3CCN(C)CC3)cn2)cc1`, in [22], the CC50 is > 40 µM (active). Besides, the IC50 in [13] was 19.3 µM (active).
